Active and inactive are the calls of the source. The calls are words filed in the database; no cut-off is given here.
Experiments:
[1] = target: T1, Methylcytosine dioxygenase TET1 (Homo sapiens, UniProt Q8NFU7); assay: Inhibition of N-terminal 3xFlag-tagged human TET1 catalytic domain (E1418 to V2136 residues) expressed in Sf9 cells using 5-methylcytosine as substrate preincubated for 10 mins followed by DNA-cofactor addition and measured after 30 mins by Alphascreen assay
[2] = target: T2, Methylcytosine dioxygenase TET3 (Homo sapiens, UniProt O43151); assay: Inhibition of human TET3 catalytic domain (E824 to I1795 residues) expressed in mammalian cells using 5-methylcytosine as substrate preincubated for 10 mins followed by DNA-cofactor addition and measured after 10 mins by Alphascreen assay
T2 sequence (O43151 whole entry, the tested form may be a part): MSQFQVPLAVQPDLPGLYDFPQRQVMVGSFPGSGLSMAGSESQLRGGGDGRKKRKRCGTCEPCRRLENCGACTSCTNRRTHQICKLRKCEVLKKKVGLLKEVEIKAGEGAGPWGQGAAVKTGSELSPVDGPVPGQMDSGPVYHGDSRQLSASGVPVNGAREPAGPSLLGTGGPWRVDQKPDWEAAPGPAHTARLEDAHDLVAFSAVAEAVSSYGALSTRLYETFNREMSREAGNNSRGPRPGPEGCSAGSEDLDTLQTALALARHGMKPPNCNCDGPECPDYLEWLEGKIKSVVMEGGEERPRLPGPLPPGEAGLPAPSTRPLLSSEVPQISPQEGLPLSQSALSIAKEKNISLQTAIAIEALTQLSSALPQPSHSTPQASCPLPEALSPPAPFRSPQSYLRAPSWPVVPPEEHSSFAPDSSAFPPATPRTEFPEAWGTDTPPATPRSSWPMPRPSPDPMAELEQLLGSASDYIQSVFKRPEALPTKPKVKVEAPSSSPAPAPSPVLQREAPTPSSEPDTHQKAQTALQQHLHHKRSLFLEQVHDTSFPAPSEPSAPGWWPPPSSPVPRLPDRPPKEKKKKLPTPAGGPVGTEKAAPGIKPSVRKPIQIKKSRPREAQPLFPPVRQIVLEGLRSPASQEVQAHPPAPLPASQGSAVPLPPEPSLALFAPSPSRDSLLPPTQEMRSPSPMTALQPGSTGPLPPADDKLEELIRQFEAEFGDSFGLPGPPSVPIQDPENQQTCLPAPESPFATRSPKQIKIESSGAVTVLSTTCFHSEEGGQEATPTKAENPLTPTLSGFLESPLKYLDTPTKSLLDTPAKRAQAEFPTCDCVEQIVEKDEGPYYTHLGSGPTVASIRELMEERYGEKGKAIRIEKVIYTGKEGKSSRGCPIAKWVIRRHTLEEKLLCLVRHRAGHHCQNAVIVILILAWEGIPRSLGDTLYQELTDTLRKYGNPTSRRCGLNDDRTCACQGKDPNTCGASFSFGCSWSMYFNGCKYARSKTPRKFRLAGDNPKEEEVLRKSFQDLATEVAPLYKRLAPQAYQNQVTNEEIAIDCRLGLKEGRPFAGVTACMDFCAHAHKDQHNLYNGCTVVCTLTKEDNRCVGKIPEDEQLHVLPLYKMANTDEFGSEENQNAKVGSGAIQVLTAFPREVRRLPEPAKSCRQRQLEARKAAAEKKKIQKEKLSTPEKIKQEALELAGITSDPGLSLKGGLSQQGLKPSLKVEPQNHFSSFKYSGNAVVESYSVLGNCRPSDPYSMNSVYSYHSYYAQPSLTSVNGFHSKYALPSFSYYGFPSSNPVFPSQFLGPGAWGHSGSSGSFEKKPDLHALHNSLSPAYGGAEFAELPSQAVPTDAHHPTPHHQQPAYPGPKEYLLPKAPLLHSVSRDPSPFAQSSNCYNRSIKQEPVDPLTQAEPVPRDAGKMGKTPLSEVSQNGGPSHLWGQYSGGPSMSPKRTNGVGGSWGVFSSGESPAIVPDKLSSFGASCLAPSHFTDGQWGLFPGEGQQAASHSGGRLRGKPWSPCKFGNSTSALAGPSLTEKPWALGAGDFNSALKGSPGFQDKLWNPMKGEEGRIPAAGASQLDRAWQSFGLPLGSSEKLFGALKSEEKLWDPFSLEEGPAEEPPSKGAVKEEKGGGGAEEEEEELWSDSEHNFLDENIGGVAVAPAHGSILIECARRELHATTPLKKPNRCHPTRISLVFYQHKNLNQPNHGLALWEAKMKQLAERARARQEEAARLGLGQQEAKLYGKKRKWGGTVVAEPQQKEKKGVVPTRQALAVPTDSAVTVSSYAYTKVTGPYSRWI

[3] = target: T2, Methylcytosine dioxygenase TET3; assay: Inhibition of human TET3 catalytic domain (E824 to I1795 residues) expressed in mammalian cells using 5-methylcytosine as substrate at 100 uM preincubated for 10 mins followed by DNA-cofactor addition and measured after 10 mins by Alphascreen assay relative to control; settings: time 20.0 min
[4] = species: Homo sapiens; assay: (§1) Competitive inhibition of N-terminal His-tagged recombinant human TET2 catalytic domain LCIdel mutant (D1129 to G1936 residues with Y1481 to N1843 replaced by a 3 x GGGGS linker) expressed in Escherichia coli BL21 (DE3) using 5-methylcytosine as substrate preincubated for 10 mins followed by DNA-cofactor addition in presence of 2-OG and measured after 10 mins by Alphascreen assay; settings: time 20.0 min
[5] = target: T1, Methylcytosine dioxygenase TET1
[6] = tested on: U2OS; assay type: toxicity, cell-based; settings: human
[7] = species: Homo sapiens; assay: as §1, with “Inhibition” for “Competitive inhibition”, “substrate at 100 uM” for “substrate”, “addition” for “addition in presence of 2-OG”, “assay relative to control” for “assay”; settings: time 20.0 min
[8] = species: Homo sapiens; settings: dose 100.0 µM, time 20.0 min
[9] = target: T1, Methylcytosine dioxygenase TET1; assay type: cell-based; settings: U2OS, dose 3.0 mM
[10] = target: T1, Methylcytosine dioxygenase TET1; assay type: cell-based; settings: U2OS, dose 1.0 mM
[11] = target: T1, Methylcytosine dioxygenase TET1; assay: Inhibition of N-terminal 3xFlag-tagged human TET1 catalytic domain (E1418 to V2136 residues) expressed in Sf9 cells using 5-methylcytosine as substrate at 100 uM preincubated for 10 mins followed by DNA-cofactor addition and measured after 30 mins by Alphascreen assay relative to control; settings: time 40.0 min
[12] = target: T3, Methylcytosine dioxygenase TET2 (Homo sapiens, UniProt Q6N021); settings: sf9
[13] = target: T3, Methylcytosine dioxygenase TET2; assay: biochemical
[14] = target: T1, Methylcytosine dioxygenase TET1; assay type: cell-based; settings: U2OS, dose > 33.0 µM
[15] = tested on: U2OS; assay type: toxicity, cell-based; settings: human; remark: listed apart in the source

T1 sequence (Q8NFU7 whole entry, the tested form may be a part): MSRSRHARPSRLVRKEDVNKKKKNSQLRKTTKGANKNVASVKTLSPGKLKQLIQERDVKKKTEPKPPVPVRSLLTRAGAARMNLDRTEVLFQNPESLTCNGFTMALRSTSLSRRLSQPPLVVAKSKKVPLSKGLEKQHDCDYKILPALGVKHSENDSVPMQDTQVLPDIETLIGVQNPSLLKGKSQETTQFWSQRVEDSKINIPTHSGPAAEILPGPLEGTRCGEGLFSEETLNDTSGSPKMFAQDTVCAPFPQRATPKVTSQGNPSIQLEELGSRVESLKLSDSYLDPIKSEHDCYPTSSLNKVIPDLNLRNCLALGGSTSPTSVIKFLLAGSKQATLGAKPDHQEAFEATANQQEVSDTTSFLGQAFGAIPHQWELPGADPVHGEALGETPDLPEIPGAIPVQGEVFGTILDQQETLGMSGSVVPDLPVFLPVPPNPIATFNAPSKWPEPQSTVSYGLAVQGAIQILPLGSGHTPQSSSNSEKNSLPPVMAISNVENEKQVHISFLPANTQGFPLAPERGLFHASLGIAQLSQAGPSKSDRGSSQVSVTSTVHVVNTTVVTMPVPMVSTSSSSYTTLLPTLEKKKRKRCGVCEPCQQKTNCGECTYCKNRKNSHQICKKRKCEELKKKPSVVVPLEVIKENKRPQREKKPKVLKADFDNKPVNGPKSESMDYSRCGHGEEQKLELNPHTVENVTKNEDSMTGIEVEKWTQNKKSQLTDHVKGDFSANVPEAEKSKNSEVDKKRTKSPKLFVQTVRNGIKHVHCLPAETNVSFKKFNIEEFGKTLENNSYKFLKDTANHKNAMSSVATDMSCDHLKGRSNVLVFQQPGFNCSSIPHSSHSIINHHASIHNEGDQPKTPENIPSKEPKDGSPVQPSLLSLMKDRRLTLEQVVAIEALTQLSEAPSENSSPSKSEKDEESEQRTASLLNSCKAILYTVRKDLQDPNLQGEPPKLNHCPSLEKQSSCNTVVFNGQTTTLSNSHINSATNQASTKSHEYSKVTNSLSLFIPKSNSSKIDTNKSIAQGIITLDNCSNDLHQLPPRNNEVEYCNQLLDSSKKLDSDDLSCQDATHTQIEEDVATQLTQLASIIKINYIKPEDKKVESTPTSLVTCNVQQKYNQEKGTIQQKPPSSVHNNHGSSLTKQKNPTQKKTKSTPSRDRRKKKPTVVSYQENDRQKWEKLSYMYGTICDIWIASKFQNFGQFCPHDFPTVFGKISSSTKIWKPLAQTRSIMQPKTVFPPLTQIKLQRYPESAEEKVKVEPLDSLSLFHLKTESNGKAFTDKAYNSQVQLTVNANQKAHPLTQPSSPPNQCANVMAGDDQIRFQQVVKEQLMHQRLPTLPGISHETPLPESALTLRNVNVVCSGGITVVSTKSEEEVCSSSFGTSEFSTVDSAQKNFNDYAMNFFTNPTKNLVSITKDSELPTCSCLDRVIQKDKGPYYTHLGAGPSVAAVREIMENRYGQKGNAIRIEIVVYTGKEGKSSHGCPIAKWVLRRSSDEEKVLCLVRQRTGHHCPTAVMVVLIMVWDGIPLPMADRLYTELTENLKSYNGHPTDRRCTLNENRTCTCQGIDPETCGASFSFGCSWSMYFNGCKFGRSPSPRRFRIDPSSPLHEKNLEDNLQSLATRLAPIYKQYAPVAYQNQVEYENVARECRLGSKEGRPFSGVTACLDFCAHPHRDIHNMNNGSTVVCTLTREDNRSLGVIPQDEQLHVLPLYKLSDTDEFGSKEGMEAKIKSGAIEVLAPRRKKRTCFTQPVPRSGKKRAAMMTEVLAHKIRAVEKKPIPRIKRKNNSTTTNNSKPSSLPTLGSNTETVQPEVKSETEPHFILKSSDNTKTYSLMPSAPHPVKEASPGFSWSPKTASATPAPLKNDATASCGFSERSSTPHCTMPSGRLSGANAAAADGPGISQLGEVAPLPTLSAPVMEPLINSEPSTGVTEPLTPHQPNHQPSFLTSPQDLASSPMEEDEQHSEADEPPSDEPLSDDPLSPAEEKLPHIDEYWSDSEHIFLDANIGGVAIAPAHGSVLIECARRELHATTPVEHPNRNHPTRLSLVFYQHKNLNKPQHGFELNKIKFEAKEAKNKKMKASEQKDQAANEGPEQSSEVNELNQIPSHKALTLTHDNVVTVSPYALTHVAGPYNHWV

O=C(O)CNC(=O)c1c(O)c2ccccc2n(Cc2ccccc2)c1=O
IC50 ([1]; read-out: pIC50 (converted)): ≥ 100 µM
IC50 ([1]; sf9, read-out: IC50): ≥ 100 µM
IC50 ([2]; read-out: IC50): ≥ 100 µM
IC50 ([2]; read-out: pIC50 (converted)): ≥ 100 µM
inhibition [3]: < 20%

O=C(O)c1ccc(O)c2ncccc12
inhibition [4]: Active

O=c1c(-n2ccnn2)c[nH]n1-c1cc(N2CCOCC2)ncn1 [MOLIDUSTAT]
EC50 [5]: ~100 µM

COC(=O)CCC(=O)C(=O)OC
pCC50 [6]: < 2

O=C(O)CNC(=O)c1nc(Cl)c2ccccc2c1O
IC50 ([1]; read-out: pIC50 (converted)): ≥ 100 µM
IC50 ([1]; sf9, read-out: IC50): ≥ 100 µM
IC50 ([2]; read-out: IC50): ≥ 100 µM
IC50 ([2]; read-out: pIC50 (converted)): ≥ 100 µM

CN(c1ccccc1)c1ccc2c(c1)CCC[C@H]2CNc1cnccc1C(=O)O
IC50 ([1]; read-out: IC50): > 100 µM
IC50 ([2]; read-out: IC50): > 100 µM

O=C(O)CCNc1cc(N2CCc3ccccc3CC2)nc(-c2ccccn2)n1
IC50 ([1]; read-out: IC50): > 100 µM
inhibition [7]: < 20%

Nc1nc(=O)n([C@H]2C[C@H](O)[C@@H](CO)O2)cc1CO
inhibition [8]: < 20%

CCCCCCCCOC(=O)[C@H](O)CCC(=O)O
pCC50 [6]: < 2.7

CCCCCCCCOC(=O)[C@@H](O)CCC(=O)O
pCC50 [6]: < 2.7
inhibition [9]: inactive

COC(=O)c1ccnc(C(=O)OC)c1
inhibition [10]: inactive

O=C(O)CNC(=O)c1c(O)n(C2CCCCC2)c(=O)n(C2CCCCC2)c1=O
IC50 ([1]; read-out: pIC50 (converted)): ≥ 100 µM
IC50 ([1]; sf9, read-out: IC50): ≥ 100 µM
IC50 ([2]; read-out: IC50): ≥ 100 µM
IC50 ([2]; read-out: pIC50 (converted)): ≥ 100 µM
inhibition [11]: 63%
inhibition [3]: 36%
IC50 [12]: ≥ 100 µM
IC50 [13]: ≥ 100 µM

Cc1nc(C(=O)NCC(=O)O)c(O)c2ccc(Oc3ccccc3)cc12 [ROXADUSTAT]
IC50 ([1]; read-out: pIC50 (converted)): ≥ 100 µM
IC50 ([1]; sf9, read-out: IC50): ≥ 100 µM
IC50 ([2]; read-out: IC50): ≥ 100 µM
IC50 ([2]; read-out: pIC50 (converted)): ≥ 100 µM
inhibition [7]: < 20%

CCN(CCN(C)C)C(=O)CNCc1cc(C(N)=O)ccn1
IC50 ([1]; read-out: IC50): > 100 µM
IC50 ([2]; read-out: IC50): > 100 µM
inhibition [11]: < 20%
inhibition [3]: < 20%
inhibition [8]: < 20%

CC(C)c1c(-c2ccccc2)[nH]c2c(C#N)cnn2c1=O
IC50 ([1]; read-out: IC50): > 100 µM
IC50 ([2]; read-out: IC50): > 100 µM
inhibition [11]: < 20%
inhibition [3]: < 20%
inhibition [7]: < 20%
inhibition [8]: < 20%

Cc1cn([C@H]2C[C@H](O)[C@@H](CO)O2)c(=O)nc1N
inhibition [8]: < 20%

Cc1[nH]c2ccccc2c1CCNCc1ccc(/C=C/C(=O)NO)cc1 [PANOBINOSTAT]
inhibition [14]: Active
Activity [15]: Dose-Dependent Effect

Reference: ChEMBL document CHEMBL5335800, “Focused Screening Identifies Different Sensitivities of Human TET Oxygenases to the Oncometabolite 2-Hydroxyglutarate” (J Med Chem, 2024)
